Patent US5358936A, “Anionic furanose derivatives, methods of making and using the same” (Gordon; Paul, priority 1991, dated 1994)
Entries after “also recorded” stand apart in the source; their conditions may differ. Counter-ions that a name gives are not always drawn.

What was measured:
gastric mucosal ulcers = assay: Healing of established gastric ulcers induced by acetic acid (Example 34); assay type: in vivo, rat; details: rat, in vivo; tripotassium salt
Source text: To evaluate drug effects on peptic ulcer healing, gastric mucosal ulcers were produced in rats, after a two day fast, by a modification of the method of Konturek et al., Am. J. Med., Vol. 86, 6A, 32 (1989). Briefly, to produce a mucosal ulcer, Konturek et al. applied 100 percent acetic acid for twenty seconds to the stomach serosa through a small cylindrical mold, 4.2 mm in diameter. The aim here was to make ulceration more severe than was achieved by the Konturek group so that spontaneous healing would not be as pronounced as they found in the controls, over an experimental period of seven days.
All drugs studied were suspended in 0.25 percent (by weight) aqueous methylcellulose solution as the vehicle or diluent, which also served as the placebo given to the controls. Treatments were given once daily by oral gavage, in one milliliter of vehicle. The treatment groups were: Control; Sucralfate at 200 mg/kg; and Compound III:Al at 200 mg/kg.
At the end of the treatment period, stomachs were removed, ulcer diameters were measured, and determination was made of the presence or absence of perforation.
A second study was carried out in which ulcer evolution was permitted to take place over five additional days, in the absence and presence of treatment with Sucralfate.
A third study was begun one day following the start of study 2, in which ulcer evolution was allowed to take place over five additional days, in the absence and presence of treatment with Compound III:Al.
In another study, after ulcer induction as above, a different dosage protocol was employed at 24 hours to evaluate the interaction of Compound III and orally administered sucralfate on ulcer healing. […] Here, daily drug doses of the following were used: (a) sucralfate at 200 mg/kg, alone and (b) in combination with 80 mg/kg Compound III given by mouth at -45 minutes, and, in a third group, (c) in combination with 10 mg/kg Compound III given IV also at -45 minutes. In this interaction study, drug treatment was continued for three and not five days, as was the case for the above studies, followed by passage of two additional non-treatment days before sacrifice of animals for evaluation of stomach ulcer area and perforation.
Data from all ulcer-healing studies employing a drug dosage of 200 mg/kg and the same ulcerogenesis protocol were pooled as to the frequency of gastric perforation observed on day five, not shown separately, with the day six perforation data shown above.

mouse paw = assay: Mouse paw edema provoked by neutral proteases (Example 32); assay type: in vivo; details: two hours; SOD 150 units IV; Compound III 50 mg/kg IP and IV; SOD P<0.05, Compound III P<0.01
Procedure: (§1) Both tryptic activity and collagenase activity are components of the tissue-injuring neutral proteinase activities secreted by neutrophils. Collagenase activity has also been associated with injury to cartilage; and, in another context, with the micro-injury to blood vessels that permits the extravasation and metastasis of, and by, tumor cells.
(§2) The effects of Compound III on rat and mouse paw edema as provoked by injection of these enzymes were evaluated. SOD injected IV and Compound III injected IP and IV at zero time, (as in Example 25), inhibited edema at two hours by from 33-40 percent, in both species. […] Both drug effects were significant by t test, SOD at P<0.05 and Compound III at P<0.01.

rat paw = assay: Rat paw edema provoked by neutral proteases (Example 32); assay type: in vivo; details: two hours; SOD IV; Compound III IP and IV
Procedure: as §1, §2

foot pad = assay: Inflammation provoked by carrageenan injection (Example 25); assay type: in vivo, mice
platelet aggregation = assay: Mouse tail bleeding time (Example 31 B); assay type: in vivo
Procedure: A study of mouse tail bleeding time, which is an in vivo model of platelet aggregation and thrombosis was also conducted. In this widely employed model, bleeding was induced by a standardized transection of the tail tip and subsequent bleeding time was determined after vertical immersion of the tails in isotonic saline at 37° C. for thirty seconds.
Two compounds of the invention, Compound III and Compound VIII, were assessed as compared with aspirin, in another study of mouse tail bleeding time. In this study, the mice were housed in a standard animal room rather than in a noisy small animal isolator. Also, all three drugs were administered by an intraperitoneal route, rather than a subcutaneous route for Compound III and an intraperitoneal route for aspirin.

rat stomachs = assay: Gastric pathology following inflammatory stress and indomethacin, food-deprived rats (Example 21); assay type: in vivo
Procedure: Stress was induced by the following procedure. On day one, under ether anesthesia, 18 male Sprague Dawley rats were injected with a suspension of Zymosan A (1 mg/ml in normal saline; Sigma Chemical Co.) in each hind paw. Swelling developed and persisted. This treatment generated activated blood complement locally (including the C5a moiety), which then spread by the bloodstream throughout the animal.
Twenty-four hours later all rat paws were reinjected, this time with 0.1 ml of proinflammatory zymosan-activated rat serum containing additional amounts of inflammatory complement fragment C5a (as in Example 23, hereinafter). Five hours later 30 mg/kg indomethacin in an aqueous suspension was given to nine such rats by oral garage. These rats also received a subcutaneous injection of 0.1 ml normal saline. Nine other such rats were given indomethacin as above, and Compound III (50 mg/kg in normal saline subcutaneously). Four additional rats, not stressed (normal) were given water by garage as a placebo and saline subcutaneously. All rats were fed ad libitum on standard diet.
In contrast to the study of Example 20, above, in this study animals were food deprived for 24 hours before and also during the 24 hours following drug treatments. All animals were subjected to the inflammatory stress as described in Example 20. Eight such rats received 30 mg/kg indomethacin, and eight rats received indomethacin and Compound III (subcut., 50 mg/kg). Four rats, not stressed, were given placebo by garage.
All animals were sacrificed by ether euthanasia 24 hours later, and their stomachs evaluated for ulcer-related pathology.
In the stressed animals given indomethacin alone, pathology was much more severe than in Example 20. For scoring, therefore, the frequency of ulcers per rat stomach was quantified, and whether they were or were not bleeding.

Source text for physchem: Note that the term "apparent pK" in this context is meant to encompass the maximization of buffering that come both from solid-state dissolution and its titration as solute.

CC1(C)O[C@H]2O[C@H]([C@@H](COS(=O)(=O)O)OS(=O)(=O)O)[C@H](OS(=O)(=O)O)[C@H]2O1 [Compound III, 1,2-O-(2-Propylidene)-3,5,6-tri-O-sulfo-α-D-glucofuranose, tripotassium salt]
effect on established ulcers, in words (gastric mucosal ulcers): used alone did not enhance the healing process; also recorded: able to prevent the perforation of established ulcers | inhibition of edema (mouse paw): 33-40% | inhibition of edema (rat paw): 33-40% | pKa (physchem): < 0.5 | reduction in swelling (foot pad; subcutaneous, ibuprofen 50 mg/kg, Compound III 30 mg/kg, not significant): 26% | Swelling Change (foot pad; two hours, SOD 100 units IV, Compound III 50 mg/kg IV + 50 mg/kg IP): -74% | Foot-Pad Swelling (foot pad; two hours, SOD 100 units IV, Compound III 50 mg/kg IV + 50 mg/kg IP, control 3.8 ± 0.67): 0.82 ± 0.46 0.1 mm | effect on mouse tail bleeding time, in words (platelet aggregation; 50 mg/kg and 150 mg/kg subcutaneously, P<0.05): more than doubled bleeding time | % Increase in bleeding time (platelet aggregation; 100 mg/kg intraperitoneal): 276% | Mouse Tail Bleeding Time (platelet aggregation; 100 mg/kg intraperitoneal, control 37.0 ± 5.25): 139.0 ± 22.51 s | potency relative to aspirin in prolonging mouse tail bleeding time / suppressing platelet aggregation (platelet aggregation; first study: aspirin 75 mg/kg IP, Compound III s.c. or oral, second study: all IP 100 mg/kg, tripotassium salt): equipotent with aspirin (75 mg/kg IP); also recorded: about equipotent with aspirin; also recorded: more effective than aspirin; also recorded: more potent than aspirin in the suppression of platelet aggregation | bleeding ulcers in group (rat stomachs; eight rats): None were bleeding | Bleeding Ulcer Frequency, Mn ± SE (rat stomachs; indomethacin 30 mg/kg, Compound III 50 mg/kg subcut. where given, 24 hours, P<0.001 vs indomethacin alone): 0.00 Per Rat | Total Ulcer Frequency, n ± SE (rat stomachs; indomethacin 30 mg/kg, Compound III 50 mg/kg subcut. where given, 24 hours, P<0.01 vs indomethacin alone): 0.63 ± 0.42 Per Rat | ulcers per affected rat (rat stomachs; indomethacin: all eight rats, indomethacin + Compound III: only two rats): two and three
